Earlier results as cited in patent publication US12502373B2, “High-content abamectin emulsifiable concentrate” (Rotam Agrochem International Company Limited, priority 2021, dated 2025).

Columns and labels:
[1] = pH: 5-9 and 25° C.
[2] = system: rats

Substance: Abamectin
- hydrolysis of the aqueous solution [1]: will not be hydrolysed
- oral LD50 [2]: 1470 mg/kg
